Target: Maltase-glucoamylase (Homo sapiens, UniProt O43451)
Test: Inhibition of Alpha-glucosidase (unknown origin)

Maltase-glucoamylase, sequence (O43451 whole entry): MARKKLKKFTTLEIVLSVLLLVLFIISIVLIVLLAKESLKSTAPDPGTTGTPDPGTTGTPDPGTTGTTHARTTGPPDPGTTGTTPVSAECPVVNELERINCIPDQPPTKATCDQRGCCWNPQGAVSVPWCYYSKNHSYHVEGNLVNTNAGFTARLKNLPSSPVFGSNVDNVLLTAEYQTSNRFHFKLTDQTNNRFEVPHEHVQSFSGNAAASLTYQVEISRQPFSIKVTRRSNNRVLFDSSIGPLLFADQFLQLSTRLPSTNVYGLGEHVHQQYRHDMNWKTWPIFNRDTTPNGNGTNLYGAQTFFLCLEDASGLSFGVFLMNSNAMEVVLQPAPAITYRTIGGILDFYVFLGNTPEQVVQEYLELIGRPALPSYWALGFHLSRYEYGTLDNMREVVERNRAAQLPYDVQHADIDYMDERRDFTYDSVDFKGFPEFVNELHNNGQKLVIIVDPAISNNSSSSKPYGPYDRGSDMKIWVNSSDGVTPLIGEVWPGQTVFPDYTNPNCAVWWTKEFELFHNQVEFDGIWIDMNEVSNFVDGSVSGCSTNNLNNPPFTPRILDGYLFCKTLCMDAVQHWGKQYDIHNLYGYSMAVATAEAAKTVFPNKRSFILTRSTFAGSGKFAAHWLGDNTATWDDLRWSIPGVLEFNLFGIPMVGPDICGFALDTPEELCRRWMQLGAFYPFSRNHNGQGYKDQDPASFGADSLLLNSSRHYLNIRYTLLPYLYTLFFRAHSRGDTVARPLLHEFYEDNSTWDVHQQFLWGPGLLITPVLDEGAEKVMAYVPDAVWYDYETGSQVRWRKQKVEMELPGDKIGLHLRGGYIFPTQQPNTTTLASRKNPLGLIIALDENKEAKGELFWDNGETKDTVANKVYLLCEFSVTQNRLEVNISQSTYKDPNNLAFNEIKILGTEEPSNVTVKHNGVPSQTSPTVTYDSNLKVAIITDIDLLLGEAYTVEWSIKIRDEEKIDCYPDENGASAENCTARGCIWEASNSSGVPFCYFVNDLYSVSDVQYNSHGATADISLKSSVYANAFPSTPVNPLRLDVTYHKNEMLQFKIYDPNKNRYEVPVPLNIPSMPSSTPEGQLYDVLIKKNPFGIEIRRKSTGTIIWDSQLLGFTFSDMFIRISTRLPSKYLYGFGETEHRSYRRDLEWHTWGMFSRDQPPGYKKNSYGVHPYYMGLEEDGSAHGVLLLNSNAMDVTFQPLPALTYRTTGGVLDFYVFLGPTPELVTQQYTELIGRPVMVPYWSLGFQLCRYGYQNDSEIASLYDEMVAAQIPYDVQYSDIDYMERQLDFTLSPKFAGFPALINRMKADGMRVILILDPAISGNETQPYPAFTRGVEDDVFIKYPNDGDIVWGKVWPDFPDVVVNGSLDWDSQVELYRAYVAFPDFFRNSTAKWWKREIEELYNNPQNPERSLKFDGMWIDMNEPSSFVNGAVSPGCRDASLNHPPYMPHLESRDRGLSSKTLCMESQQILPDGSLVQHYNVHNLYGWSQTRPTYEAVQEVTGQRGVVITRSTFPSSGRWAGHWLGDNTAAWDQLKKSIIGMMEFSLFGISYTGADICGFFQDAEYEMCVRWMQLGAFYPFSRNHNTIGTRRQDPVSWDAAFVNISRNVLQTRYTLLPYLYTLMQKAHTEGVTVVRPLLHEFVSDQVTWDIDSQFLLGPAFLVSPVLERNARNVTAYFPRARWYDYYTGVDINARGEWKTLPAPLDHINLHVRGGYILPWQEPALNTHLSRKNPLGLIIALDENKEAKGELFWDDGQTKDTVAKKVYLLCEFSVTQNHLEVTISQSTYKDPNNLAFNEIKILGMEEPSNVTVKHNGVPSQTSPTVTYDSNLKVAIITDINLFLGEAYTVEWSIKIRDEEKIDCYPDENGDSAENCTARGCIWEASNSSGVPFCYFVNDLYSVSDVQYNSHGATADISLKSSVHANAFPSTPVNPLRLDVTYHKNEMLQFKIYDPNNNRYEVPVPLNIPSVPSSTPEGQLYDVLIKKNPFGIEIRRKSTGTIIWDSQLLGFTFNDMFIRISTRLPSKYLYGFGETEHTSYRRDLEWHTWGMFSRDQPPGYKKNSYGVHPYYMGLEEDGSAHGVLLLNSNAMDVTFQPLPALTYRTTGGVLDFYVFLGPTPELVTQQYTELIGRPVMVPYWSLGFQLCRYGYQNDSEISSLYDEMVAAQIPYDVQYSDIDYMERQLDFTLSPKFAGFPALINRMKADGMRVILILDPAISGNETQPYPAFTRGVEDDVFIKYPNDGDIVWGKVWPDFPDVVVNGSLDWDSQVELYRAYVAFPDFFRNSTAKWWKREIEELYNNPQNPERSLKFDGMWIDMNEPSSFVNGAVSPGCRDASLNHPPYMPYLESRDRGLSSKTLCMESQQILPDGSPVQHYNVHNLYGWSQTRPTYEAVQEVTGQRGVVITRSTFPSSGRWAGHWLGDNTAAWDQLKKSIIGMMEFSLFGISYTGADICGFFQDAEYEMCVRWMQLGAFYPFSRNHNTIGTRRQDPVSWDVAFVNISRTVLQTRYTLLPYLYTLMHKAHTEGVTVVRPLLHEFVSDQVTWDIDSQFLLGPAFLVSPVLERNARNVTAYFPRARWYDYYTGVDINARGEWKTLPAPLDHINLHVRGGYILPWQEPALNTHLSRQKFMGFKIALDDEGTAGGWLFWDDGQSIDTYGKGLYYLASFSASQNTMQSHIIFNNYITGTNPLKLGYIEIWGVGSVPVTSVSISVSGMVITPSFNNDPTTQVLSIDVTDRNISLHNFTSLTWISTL

IC50: 15.3 µM
SMILES: CC/C=C\C/C=C\CCC(=O)O[C@@]12[C@H](OC(=O)[C@@H](C)CC)[C@@H](C)[C@@]3(O)[C@@H](C(=O)C(CO)=C[C@]4(O)C(=O)C(C)=C[C@@H]34)[C@@H]1C2(C)C
